In patent US20030134859A1 (SANKYO COMPANY, LIMITED, priority 2000, published 2003):
Where a name gives a salt, the structure may show the parent alone.

How the values were obtained:
Assay type in all cases: cell-based
human PPAR γ 2 = target: T1, human PPAR γ 2 (Homo sapiens, UniProt P37231); experiment: Inhibitory activity against PPAR γ transcription in the presence of agonist compound A, luciferase reporter; details: in the presence of 10 nM compound A (agonist); MG63 cells transfected with pSG5-hPPARg and pGV-P2-PPRE; 24 hr
T1 construct: expressed in transfected cells; host or cells: human osteosarcoma MG63, transiently co-transfected with pSG5-hPPARg and the reporter pGV-P2-PPRE
T1 sequence (P37231 1-505): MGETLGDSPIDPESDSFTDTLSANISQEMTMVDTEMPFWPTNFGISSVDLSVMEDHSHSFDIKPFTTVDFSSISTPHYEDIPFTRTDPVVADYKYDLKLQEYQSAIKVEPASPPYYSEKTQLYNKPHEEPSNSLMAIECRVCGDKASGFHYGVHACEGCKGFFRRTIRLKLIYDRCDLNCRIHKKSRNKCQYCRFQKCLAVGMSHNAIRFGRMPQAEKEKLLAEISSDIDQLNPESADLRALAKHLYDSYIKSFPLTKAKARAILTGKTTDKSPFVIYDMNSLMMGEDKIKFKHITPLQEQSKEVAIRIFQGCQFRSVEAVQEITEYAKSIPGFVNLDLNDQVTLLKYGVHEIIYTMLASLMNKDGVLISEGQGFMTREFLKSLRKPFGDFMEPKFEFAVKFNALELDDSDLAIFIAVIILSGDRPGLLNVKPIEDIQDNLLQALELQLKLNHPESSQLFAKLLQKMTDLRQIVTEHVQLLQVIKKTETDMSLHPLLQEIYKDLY
Description: The primers of the polymerase chain reaction (hereinafter “PCR”) were designed according to the gene sequence of human PPAR γ 2 (GenBANK accession No. D83233). […] For this, 2 kinds of polynucleotides shown in the sequence numbers 1 and 2 in the sequence table described below (hereinafter “S1” and “AS1”, respectively) were used as PCR primers.
In order to determine transcriptional activity via PPAR γ, 2 kinds of polynucleotides represented in sequence numbers 3 and 4 in the sequence table described below (hereinafter “S2” and “AS2”, respectively) were used for construction of the reporter plasmid having PPAR responsive element. The DNA fragment inserted was designed based on the gene sequence in the promoter region of rat acylCo-A oxidase (J. D. Tugwood, EMBO J., 11 (2), pp433-439 (1992)). For insertion of the DNA fragment into the reporter plasmid pGV-P2 (TOYO INK MFG CO., LTD), a NheI site and an XhoI site were added to the S2 and AS2, respectively.
Using cDNA library (Clontech) derived from human adipose tissue as a template, DNA oligomers S1 and AS1 that were synthesized in the procedure 1 as primers and Ex-Taq™ (TAKARA BIO INC.) as a thermostable DNA polymerase-PCR was carried out. […] Each cycle consisted of incubation at 94° C. for 1 min for denaturation of the template, then at 55° C. for 30 sec for annealing of DNA oligomers the PCR primer, and then at 72° C. for 30 sec for extension of the chain. The obtained DNA fragments with approximately 1500 base pairs were digested at the Bgl II sites and were inserted into BamHI sites of pSG5. Thus a human PPAR γ expression plasmid named pSG5-hPPAR g was obtained.
Vector pGV-P2 digestion products was prepared by digestion using the restriction enzymes, NheI and XhoI, and purified by 1.0% agarose-gel electrophoresis. The DNA oligomers, S2 and AS2 obtained in Procedure 2, were mixed together and were incubated in a hot bath at 94° C. for 1 min. After the annealing was partially broken, they were further incubated at 25° C. for 1 hr. Thus double-stranded DNA with annealing of S2 and AS2 was formed. Then, the terminus of the double-stranded DNA with annealing of S2 and AS2 was phosphorylated with DNA polynucleotide kinase (TOYOBO CO., LTD). After that, it was ligated to the pGV-P2 digestion products which were prepared previously using the NheI site and XhoI site. Thus the reporter plasmid pGV-P2-PPRE was obtained.
Using the plasmid obtained by the procedures 3 and 4, transformation of Escherichia coli HB-101 strain was carried out by conventional methods. HB-101 strain having the plasmid was incubated in L-broth medium (containing 10 g of trypton (Difco), 5 g of yeast extract (Difco), 5 g of sodium chloride in 1 L of aqueous solution) containing 100 μg/ml of ampicillin at 37° C. for 17 hrs. Then, each plasmid was purified by the alkaline-SDS method and employed for the gene transfection to mammalian cells. After mixing the pSG5-hPPARg, PGV-P2-PPRE and LipofectAMINE reagent (GIBCO BRL), the human osteosarcoma MG63 was transiently transfected. Then the cells were recovered. The recovered cells were plated on a 96-well plate so as to be 30,000 cells/well and cultured in a CO2 incubator (NAPCO) at 37° C. for 24 hr under the condition of 5% CO2, 95%-RH.
Ten (10) nM of the following compound A (although compound A is described here as a representative compound, the compound is not limited to compound A, if the compound exerts a PPAR r agonistic activity) and various concentrations of the test compound were added to culturing medium of the cells prepared in the Procedure 5.

[1] = system: Mouse preadipocyte strain 3T3-L1; experiment: Inhibition of differentiation as an indication of acetic acid uptake; details: Mus musculus, 3T3-L1, 0.1 μM test substance, control (0.01% dimethylsulfoxide) = 100%, read-out: Rate of Uptake (%) of [2-14C] acetic acid
Protocol: As the basal medium, Dulbecco's modified Eagle's (DEM) medium (NISSUI PHARMACEUTICAL CO., LTD) was used. […] All culturing in the present Test Example was carried out in a CO2 incubator at 37° C. and 10% CO2 concentration.
The successively cultured 3T3-L1 cells were inoculated in a Biocoat Collagen I 96-well white/clear plate (Becton Dickinson and Co.) at a concentration of 4,900 cells/well, and were cultured in the basal medium containing added 10% (v/v) inactivated bovine fetal serum (FBS) for 10 days.
The medium was replaced with a differentiation-inducing medium in which inactivated FBS (final concentration: 5%), insulin (Sigma-Aldrich Japan K. K., final concentration: 10 μg/mL), isobutyl methyl xanthine (Aldrich K. K., final concentration: 0.5 mM) and dexamethazone (final concentration: 1 μM) were added so as to be at the final concentrations indicated in the parentheses. The cells were divided in the following 2 groups and were cultured for 4 days; 1) in the presence of 0.01% (v/v) dimethylsulfoxide, and 2) in the presence of 0.01% (v/v) dimethylsulfoxide in which was dissolved 1 mM of the test substance (final concentration of 0.1 μM). Then, the medium was further replaced with a maintenance medium in which inactivated […] and insulin were added to the base medium so as to be at final concentrations of 5% and 100 ng/mL, respectively, and the cells were cultured for 2 days.
The inhibitory activity of the test compound against cell differentiation was assayed by using uptake of [2-^14C] acetic acid into the cultured cells as an indicator. […] Then the cells were further incubated with the newly prepared medium for 1 hr. After washing the well with PBS (−), the cells were dried. To these wells, 100 μL/well of a scintillation cocktail (Hewlett-Packard Co., MICROSCINT-20 PACKARD) were added and their radioactivities were determined with a Packard TopCont microplate Scintillation Counter (Hewlett-Packard Co., PACKARD) and the uptake level of [2-^14C] acetic acid into the cultured cell was calculated.
On the basis of the calculated uptake level of [2-^14C] acetic acid into the cultured cells, the relative uptake level of [2-^14C] acetic acid in the group treated with the test compound was calculated against the uptake level of [2-^14C] acetic acid in the presence of 0.01% (v/v) dimethylsulfoxide solution described in 1) (100%).
Value=Uptake Level (cpm) of [2-^14C] Acetic Acid in the Presence of the Test Substance
Control=Uptake Level (cpm) of [2-^14C] Acetic Acid in the Control Group (0.01% dimethylsulfoxide)
Uptake Rate (%) of [2-^14C] Acetic Acid=100×[Value]/[Control]

Rat white adipocytes = experiment: Inhibition of the differentiation of adipocytes (Oil Red O); details: Rattus norvegicus, Adipocyte, 120 h, 100 nM test compound; 5 days; Oil Red O ABS550; control = 100%, blank = 0%; Table 3; read-out: Rate of Differentiation (%)
Method in brief: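 Rat white preadipocytes, 5,000 cells/well, given differentiation medium with compound at 100 nM final (0.1% DMSO) for 5 days at 37 °C. Lipid stained with Oil Red O, eluted in DMSO, read at 550 nm; differentiation % relative to DMSO control (100%) and blank (0%).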

Row | Compound | IC50 (human PPAR γ 2) [nM] | activity at 0.1 µM [1] [%] | activity at 0.1 µM (Rat white adipocytes) [%]
1 | CCS(=O)(=O)Nc1ccc(NC(=O)c2cc([N+](=O)[O-])ccc2Cl)cc1 [Example 129, N-(4-Ethanesulfonylaminophenyl)-(2-chloro-5-nitrophenyl)carboxamide] | 26 | – | –
2 | O=C(Nc1ccc(C(=O)N2CCOCC2)cc1)c1cc([N+](=O)[O-])ccc1Cl [Example 158, N-[4-(Morpholin-4-ylcarbonyl)phenyl]-(2-chloro-5-nitrophenyl)carboxamide] | 82 | – | –
3 | CCCCCCCCN(CCCCC)c1ccc(-c2ccc(NC(=O)c3cc([N+](=O)[O-])ccc3Cl)cc2)cc1 [Example 221, N-[4-[4-(N-Octyl-N-pentylamino)phenyl]phenyl]-(2-chloro-5-nitrophenyl)carboxamide mono-hydrochloride] | 34 | – | 40.2
4 | O=C(Nc1ccc(N2CCN(C(=O)c3cccnc3)CC2)cc1)c1cc([N+](=O)[O-])ccc1Cl [Example 227, N-[4-[4-(Pyridin-3-ylcarbonyl)piperazin-1-yl]phenyl]-2-(chloro-5-nitrophenyl)carboxamide] | 81 | – | 39.7
5 | O=C(NCCc1ccc(NC(=O)c2cc([N+](=O)[O-])ccc2Cl)cc1)Nc1ccccc1 [Example 268, N-[4-(2-Phenylaminocarbonylaminoethyl)phenyl]-(2-chloro-5-nitrophenyl)carboxamide] | 25 | – | 54.8
6 | O=C(Nc1ccc(CCNC(=S)Nc2ccccc2)cc1)c1cc([N+](=O)[O-])ccc1Cl [Example 269, N-[4-(2-Phenylaminothiocarbonylaminoethyl)phenyl]-(2-chloro-5-nitrophenyl)carboxamide] | 30 | – | 52.9

Stronger by IC50 (human PPAR γ 2), values ahead:

Row | IC50 (human PPAR γ 2) [nM] | Compound | activity at 0.1 µM [1] [%] | activity at 0.1 µM (Rat white adipocytes) [%]
7 | 14 | Cc1nccc(-c2cccc(NC(=O)c3cc([N+](=O)[O-])ccc3Cl)c2)n1 [Example 112, N-[3-(2-Methylpyrimidin-4-yl)phenyl]-(2-chloro-5-nitrophenyl)carboxamide] | 82.3 | –
8 | 9.3 | CC(O)c1ccc(NC(=O)c2cc([N+](=O)[O-])ccc2Cl)cc1 (stereo not shown) [Example 238, N-[4-(1-Hydroxyethyl)phenyl]-(2-chloro-5-nitrophenyl)carboxamide] | – | 64
9 | 12 | O=C(Nc1ccc(-c2ccc(NC(=S)Nc3cccnc3)cc2)cc1)c1cc([N+](=O)[O-])ccc1Cl [Example 256, N-[4-[4-[(Pyridin-3-yl)aminothiocarbonylamino]phenyl]phenyl)-(2-chloro-5-nitrophenyl)carboxamide] | – | 38.2
